In the NIST ThermoML archive (doi:10.1016/j.jct.2018.08.013):
Where “and” joins values, the source holds several entries; their conditions need not be identical. Identical values can stand only once.

Assays:
[1] = xn = mol fraction of the nth substance listed; conditions: 298 K; 100 kPa; Crystal of intercomponent compound 1; X-ray diffraction; x2 = 0.477
[2] = specific heat capacity at constant pressure; xn = mol fraction of the nth substance listed; conditions: 100 kPa, Crystal of intercomponent compound 1, x2 = 0.477

[Se] [selenium] + [In]
Conditions	mass density [kg/m3]
[1]	5546

[2]
Conditions	specific heat capacity
10.11 K, relaxation calorimetry	10.21 J/K/kg and 10.22 J/K/kg and 10.23 J/K/kg
12.12 K, relaxation calorimetry	16.85 J/K/kg and 16.83 J/K/kg
12.14 K, relaxation calorimetry	16.97 J/K/kg
14.13 K, relaxation calorimetry	24.44 J/K/kg
14.15 K, relaxation calorimetry	24.49 J/K/kg
16.15 K, relaxation calorimetry	32.56 J/K/kg and 32.49 J/K/kg
16.16 K, relaxation calorimetry	32.62 J/K/kg
18.17 K, relaxation calorimetry	40.89 J/K/kg and 40.88 J/K/kg
18.18 K, relaxation calorimetry	40.87 J/K/kg
20.18 K, relaxation calorimetry	49.24 J/K/kg
20.19 K, relaxation calorimetry	49.1 J/K/kg and 49.16 J/K/kg
22.2 K, relaxation calorimetry	57.18 J/K/kg and 57.13 J/K/kg
22.21 K, relaxation calorimetry	56.97 J/K/kg
24.22 K, relaxation calorimetry	65.02 J/K/kg and 64.97 J/K/kg
24.23 K, relaxation calorimetry	64.87 J/K/kg
26.24 K, relaxation calorimetry	72.45 J/K/kg and 72.56 J/K/kg
28.25 K, relaxation calorimetry	79.57 J/K/kg
30.27 K, relaxation calorimetry	86.33 J/K/kg and 86.39 J/K/kg
32.78 K, relaxation calorimetry	94.54 J/K/kg
32.79 K, relaxation calorimetry	94.59 J/K/kg
35.31 K, relaxation calorimetry	102.49 J/K/kg and 102.64 J/K/kg
37.81 K, relaxation calorimetry	109.66 J/K/kg
37.82 K, relaxation calorimetry	109.87 J/K/kg
40.34 K, relaxation calorimetry	117.25 J/K/kg
40.35 K, relaxation calorimetry	116.73 J/K/kg and 116.68 J/K/kg
42.86 K, relaxation calorimetry	123.23 J/K/kg
42.87 K, relaxation calorimetry	122.77 J/K/kg
45.38 K, relaxation calorimetry	129.63 J/K/kg
45.39 K, relaxation calorimetry	129.32 J/K/kg
45.4 K, relaxation calorimetry	129.27 J/K/kg
47.9 K, relaxation calorimetry	135.36 J/K/kg
47.91 K, relaxation calorimetry	134.84 J/K/kg
50.41 K, relaxation calorimetry	141.5 J/K/kg
50.42 K, relaxation calorimetry	140.88 J/K/kg
50.44 K, relaxation calorimetry	140.73 J/K/kg
52.93 K, relaxation calorimetry	146.09 J/K/kg
52.95 K, relaxation calorimetry	145.42 J/K/kg
55.43 K, relaxation calorimetry	151.41 J/K/kg
55.46 K, relaxation calorimetry	150.74 J/K/kg
55.48 K, relaxation calorimetry	150.63 J/K/kg
57.97 K, relaxation calorimetry	155.28 J/K/kg
57.99 K, relaxation calorimetry	154.81 J/K/kg
60.46 K, relaxation calorimetry	160.13 J/K/kg
60.49 K, relaxation calorimetry	159.41 J/K/kg
60.52 K, relaxation calorimetry	159.25 J/K/kg
63.01 K, relaxation calorimetry	163.79 J/K/kg
63.04 K, relaxation calorimetry	162.97 J/K/kg
65.49 K, relaxation calorimetry	168.85 J/K/kg
65.53 K, relaxation calorimetry	167.77 J/K/kg
65.57 K, relaxation calorimetry	167.3 J/K/kg
68.05 K, relaxation calorimetry	171.53 J/K/kg
68.08 K, relaxation calorimetry	170.97 J/K/kg
70.52 K, relaxation calorimetry	176.23 J/K/kg
70.56 K, relaxation calorimetry	175.25 J/K/kg
70.63 K, relaxation calorimetry	173.96 J/K/kg
73.05 K, relaxation calorimetry	178.14 J/K/kg
73.09 K, relaxation calorimetry	177.31 J/K/kg
75.56 K, relaxation calorimetry	182.68 J/K/kg
75.6 K, relaxation calorimetry	181.49 J/K/kg
75.67 K, relaxation calorimetry	180.82 J/K/kg
78.13 K, relaxation calorimetry	184.75 J/K/kg
78.16 K, relaxation calorimetry	183.82 J/K/kg
80.57 K, relaxation calorimetry	189.39 J/K/kg
80.65 K, relaxation calorimetry	187.95 J/K/kg
80.71 K, relaxation calorimetry	187.02 J/K/kg
83.17 K, relaxation calorimetry	190.47 J/K/kg
83.2 K, relaxation calorimetry	189.7 J/K/kg
85.61 K, relaxation calorimetry	194.76 J/K/kg
85.69 K, relaxation calorimetry	193.42 J/K/kg
85.74 K, relaxation calorimetry	192.69 J/K/kg
88.19 K, relaxation calorimetry	195.84 J/K/kg
88.24 K, relaxation calorimetry	194.76 J/K/kg
90.63 K, relaxation calorimetry	200.23 J/K/kg
90.71 K, relaxation calorimetry	198.78 J/K/kg
90.78 K, relaxation calorimetry	197.54 J/K/kg
93.18 K, relaxation calorimetry	200.64 J/K/kg
93.24 K, relaxation calorimetry	199.45 J/K/kg
95.65 K, relaxation calorimetry	204.05 J/K/kg
95.74 K, relaxation calorimetry	202.39 J/K/kg
95.83 K, relaxation calorimetry	201.41 J/K/kg
98.2 K, relaxation calorimetry	204.15 J/K/kg
98.3 K, relaxation calorimetry	202.34 J/K/kg
100.79 K, relaxation calorimetry	205.8 J/K/kg
100.83 K, relaxation calorimetry	205.34 J/K/kg
100.91 K, relaxation calorimetry	207.4 J/K/kg
101.79 K, relaxation calorimetry	206.37 J/K/kg
101.88 K, relaxation calorimetry	205.18 J/K/kg
105.84 K, relaxation calorimetry	208.74 J/K/kg
105.86 K, relaxation calorimetry	208.07 J/K/kg
109.83 K, relaxation calorimetry	211.27 J/K/kg
109.93 K, relaxation calorimetry	209.1 J/K/kg
113.88 K, relaxation calorimetry	213.59 J/K/kg
113.93 K, relaxation calorimetry	212.1 J/K/kg
117.9 K, relaxation calorimetry	215.3 J/K/kg
117.98 K, relaxation calorimetry	213.08 J/K/kg
121.94 K, relaxation calorimetry	217.67 J/K/kg
121.97 K, relaxation calorimetry	216.38 J/K/kg
125.98 K, relaxation calorimetry	218.34 J/K/kg and 218.39 J/K/kg
130 K, relaxation calorimetry	220.35 J/K/kg
130.01 K, relaxation calorimetry	220.87 J/K/kg
133.92 K, relaxation calorimetry	223.14 J/K/kg
134.04 K, relaxation calorimetry	219.79 J/K/kg
138.04 K, relaxation calorimetry	223.76 J/K/kg
138.07 K, relaxation calorimetry	223.97 J/K/kg
141.97 K, relaxation calorimetry	225.82 J/K/kg
142.1 K, relaxation calorimetry	222.52 J/K/kg
146.07 K, relaxation calorimetry	227.01 J/K/kg
146.14 K, relaxation calorimetry	226.7 J/K/kg
150.02 K, relaxation calorimetry	228.71 J/K/kg
150.14 K, relaxation calorimetry	225.72 J/K/kg
154.13 K, relaxation calorimetry	230.11 J/K/kg
154.16 K, relaxation calorimetry	229.02 J/K/kg
162.19 K, relaxation calorimetry	232.33 J/K/kg
162.21 K, relaxation calorimetry	231.34 J/K/kg
170.26 K, relaxation calorimetry	233.51 J/K/kg
170.28 K, relaxation calorimetry	234.13 J/K/kg
178.32 K, relaxation calorimetry	235.16 J/K/kg
178.34 K, relaxation calorimetry	235.63 J/K/kg
186.37 K, relaxation calorimetry	236.76 J/K/kg
186.4 K, relaxation calorimetry	237.23 J/K/kg
194.4 K, relaxation calorimetry	238 J/K/kg
194.45 K, relaxation calorimetry	238.31 J/K/kg
202.42 K, relaxation calorimetry	239.96 J/K/kg
202.5 K, relaxation calorimetry	239.65 J/K/kg
210.44 K, relaxation calorimetry	241.2 J/K/kg
210.53 K, relaxation calorimetry	241.05 J/K/kg
218.46 K, relaxation calorimetry	241.51 J/K/kg
218.55 K, relaxation calorimetry	241.2 J/K/kg
226.5 K, relaxation calorimetry	242.85 J/K/kg
226.59 K, relaxation calorimetry	242.65 J/K/kg
234.52 K, relaxation calorimetry	243.63 J/K/kg
234.63 K, relaxation calorimetry	243.37 J/K/kg
242.56 K, relaxation calorimetry	244.4 J/K/kg
242.67 K, relaxation calorimetry	244.04 J/K/kg
250.6 K, relaxation calorimetry	245.28 J/K/kg
250.71 K, relaxation calorimetry	245.12 J/K/kg
255.57 K, relaxation calorimetry	245.59 J/K/kg
255.58 K, relaxation calorimetry	246.52 J/K/kg
258.63 K, relaxation calorimetry	245.95 J/K/kg
258.74 K, relaxation calorimetry	245.79 J/K/kg
264.04 K, relaxation calorimetry	247.24 J/K/kg
264.08 K, relaxation calorimetry	246.1 J/K/kg
265.74 K, Extra sensitive DSC	248.37 J/K/kg
266.66 K, relaxation calorimetry	246.62 J/K/kg
266.77 K, relaxation calorimetry	246.57 J/K/kg
270 K, Extra sensitive DSC	248.48 J/K/kg
272.24 K, relaxation calorimetry	248.48 J/K/kg
272.34 K, relaxation calorimetry	248.43 J/K/kg
274.69 K, relaxation calorimetry	247.7 J/K/kg
274.81 K, relaxation calorimetry	247.7 J/K/kg
275 K, Extra sensitive DSC	248.79 J/K/kg
280 K, Extra sensitive DSC	249.1 J/K/kg
280.72 K, relaxation calorimetry	249.15 J/K/kg
280.84 K, relaxation calorimetry	248.06 J/K/kg
282.72 K, relaxation calorimetry	248.48 J/K/kg
282.83 K, relaxation calorimetry	248.37 J/K/kg
285 K, Extra sensitive DSC	249.51 J/K/kg
288.98 K, relaxation calorimetry	249.72 J/K/kg
289.06 K, relaxation calorimetry	248.53 J/K/kg
290 K, Extra sensitive DSC	249.92 J/K/kg
290.72 K, relaxation calorimetry	248.79 J/K/kg
290.85 K, relaxation calorimetry	248.94 J/K/kg
294.72 K, relaxation calorimetry	248.58 J/K/kg
294.84 K, relaxation calorimetry	249.25 J/K/kg
295 K, Extra sensitive DSC	250.03 J/K/kg
297.48 K, relaxation calorimetry	249.25 J/K/kg
297.56 K, relaxation calorimetry	248.74 J/K/kg
298.75 K, relaxation calorimetry	248.74 J/K/kg
298.86 K, relaxation calorimetry	250.59 J/K/kg
300 K, Extra sensitive DSC	250.18 J/K/kg
303.85 K, relaxation calorimetry	252.19 J/K/kg
303.86 K, relaxation calorimetry	252.14 J/K/kg
305 K, Extra sensitive DSC	250.39 J/K/kg
305.75 K, relaxation calorimetry	251.52 J/K/kg
305.8 K, relaxation calorimetry	251.11 J/K/kg
306.87 K, relaxation calorimetry	252.97 J/K/kg and 252.76 J/K/kg
310 K, Extra sensitive DSC	251.42 J/K/kg
315 K, Extra sensitive DSC	252.09 J/K/kg
320 K, Extra sensitive DSC	251.78 J/K/kg
325 K, Extra sensitive DSC	252.3 J/K/kg
330 K, Extra sensitive DSC	253.12 J/K/kg
335 K, Extra sensitive DSC	254.52 J/K/kg
340 K, Extra sensitive DSC	254.88 J/K/kg
345 K, Extra sensitive DSC	255.7 J/K/kg
350 K, Extra sensitive DSC	256.89 J/K/kg
355 K, Extra sensitive DSC	257.82 J/K/kg
357.87 K, Extra sensitive DSC	258.59 J/K/kg
